These are literature values, as cited in patent US20060029556A1, “Aqueous-alcoholic depigmenting gels” (GALDERMA RESEARCH & DEVELOPMENT, S.N.C., priority 2002, published 2006).

Like-named read-outs stand apart in the source and are kept apart here.

`Oc1ccc(O)cc1` [hydroquinone]: the incidence of irritation entry by setting is: (hydroquinone concentration 10%) “relatively high”; (hydroquinone concentration of 2%) “virtually nonexistent”; (hydroquinone preparations with a 5% dose) “reduces greatly”.
